Reference: PubChem BioAssay (NCI)
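96-well plates; 48 h exposure; 5 concentrations. Endpoints by linear interpolation between flanking doses. Not reached: highest tested concentration assigned. GI50: concentration for 50% inhibition of growth. TGI is the concentration that stops growth completely.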

test system: HOP-92 NSCLC; experiment: inhibition of tumour cell growth, NCI panel, 48 h

Compared with `CCCOC(=O)CNC(=O)OC(C)(C)C`, `CN(C)CCNC(=O)c1cccc2ccc(-c3ccc(F)cc3)nc12` is lower in TGI: greater than 100 µM for the first, 18 µM for the second.

test system: OVCAR-4 ovarian; experiment: inhibition of tumour cell growth, NCI panel, 48 h

Going from `Nc1n[nH]c(=O)c2c1c(I)cn2C1OC(CO)C(O)C1O` (stereo not drawn) to `C[C@H]1C(=O)O[C@@H]2CCN3CC=C(COC(=O)[C@](C)(O)[C@@]1(C)O)[C@H]23`, the TGI rises from 14.4 µM to greater than 100 µM.

Going from `O=C(Nc1ccc([N+](=O)[O-])cc1[N+](=O)[O-])C(=O)C(C(=O)c1ccc2ccccc2c1)C1OC(=O)c2ccccc21` (stereo not drawn) to `COc1ccc(C2=C3SC=c4ccccc4=C3ON=C2c2ccccc2)cc1`, the TGI rises from 60.3 µM to greater than 100 µM.

Going from `COc1cc(/C=C/C(=O)Oc2ccc(NC(C)=O)cc2)ccc1C(=O)O/C=C/c1ccccc1` to `COc1cc(C2CC(c3cccc(Nc4ccncc4)c3)=NN2c2ccc(Cl)cc2)cc(OC)c1OC` (stereo not drawn), the TGI falls from greater than 100 µM to 3.08 µM.

Going from `COc1ccc2c(c1)CCCN2CCCCCCCCCCN(CCC(C)C)CCC(C)C` to `CN(C)CCCn1cnc2cc(Cl)c(Cl)cc21`, the TGI rises from 19.4 µM to greater than 100 µM.

First: O=P1(c2ccccc2)Nc2ccccc2SSc2ccccc2N1
Second: O=C1NI(C#Cc2ccccc2)c2ccccc21
The TGI of the first is lower: 33.6 µM for the first, greater than 100 µM for the second.

Going from `COc1ccc(-c2nc3ncccn3c2-c2ccc(SC)cc2)cc1` to `CN(C)CCNC(=O)c1cccc2ccc(-c3ccc(F)cc3)nc12`, the TGI falls from greater than 100 µM to 18.3 µM.

First: N=C1C(=N)c2ccccc2-c2ccccc21.N=C1C(=N)c2ccccc2-c2ccccc21.N=C1C(=N)c2ccccc2-c2ccccc21.[Cl-].[Ru+2]
Second: NCCCn1c2c(c3ccc([N+](=O)[O-])cc3c1=O)C(=O)c1ccccc1-2
The TGI of the first is 6.1-fold higher: 2.85 µM for the first, 0.47 µM for the second.

Going from `CN(C)C(=O)/C=C/c1c[nH]c(=O)[nH]c1=O` to `CC(=O)NNc1nc(-c2ccc([N+](=O)[O-])cc2)c(C#N)c(=O)n1C`, the TGI falls from greater than 500 µM to 52.7 µM.

Going from `CCc1nc(N)nc(N)c1-c1ccc([N+](C)(C)C)cc1` to `NCCc1cc(O)c(O)cc1O`, the TGI falls from greater than 100 µM to 25.6 µM.

`CCCOC(=O)CNC(=O)OC(C)(C)C` gave a TGI greater than 100 µM.

First: NCCCn1c2c(c3ccc([N+](=O)[O-])cc3c1=O)C(=O)c1ccccc1-2
Second: COc1cc(C2CC(c3cccc(Nc4ccncc4)c3)=NN2c2ccc(Cl)cc2)cc(OC)c1OC (stereo not drawn)
The GI50 of the first is 14-fold lower: 0.116 µM for the first, 1.62 µM for the second.

With `NCCc1cc(O)c(O)cc1O` the GI50 was 12.3 µM.

test system: UO-31 renal; experiment: inhibition of tumour cell growth, NCI panel, 48 h

Compared with `Nc1n[nH]c(=O)c2c1c(I)cn2C1OC(CO)C(O)C1O` (stereo not drawn), `C[C@H]1C(=O)O[C@@H]2CCN3CC=C(COC(=O)[C@](C)(O)[C@@]1(C)O)[C@H]23` is higher in TGI: 5.86 µM for the first, greater than 100 µM for the second.

Compared with `O=C(Nc1ccc([N+](=O)[O-])cc1[N+](=O)[O-])C(=O)C(C(=O)c1ccc2ccccc2c1)C1OC(=O)c2ccccc21` (stereo not drawn), `COc1ccc(C2=C3SC=c4ccccc4=C3ON=C2c2ccccc2)cc1` is higher in TGI: 27.7 µM for the first, greater than 100 µM for the second.

`COc1cc(/C=C/C(=O)Oc2ccc(NC(C)=O)cc2)ccc1C(=O)O/C=C/c1ccccc1` and `CCOC(=O)c1c2c(n(Cc3ccccc3)c1C)C(=O)C(=O)c1ccccc1-2` cannot be ordered by TGI: greater than 100 µM for the first, greater than 100 µM for the second.

First: COc1ccc2c(c1)CCCN2CCCCCCCCCCN(CCC(C)C)CCC(C)C
Second: CN(C)CCCn1cnc2cc(Cl)c(Cl)cc21
The TGI of the first is lower: 10.2 µM for the first, greater than 100 µM for the second.

Going from `O=P1(c2ccccc2)Nc2ccccc2SSc2ccccc2N1` to `O=C1NI(C#Cc2ccccc2)c2ccccc21`, the TGI rises from 27.2 µM to greater than 100 µM.

Going from `COc1ccc(-c2nc3ncccn3c2-c2ccc(SC)cc2)cc1` to `CN(C)CCNC(=O)c1cccc2ccc(-c3ccc(F)cc3)nc12`, the TGI falls from 66.6 µM to 11.4 µM (5.8-fold).

First: N=C1C(=N)c2ccccc2-c2ccccc21.N=C1C(=N)c2ccccc2-c2ccccc21.N=C1C(=N)c2ccccc2-c2ccccc21.[Cl-].[Ru+2]
Second: COc1cc(C2CC(c3cccc(Nc4ccncc4)c3)=NN2c2ccc(Cl)cc2)cc(OC)c1OC (stereo not drawn)
The TGI of the first is 2-fold higher: 4.71 µM for the first, 2.37 µM for the second.

`CN(C)C(=O)/C=C/c1c[nH]c(=O)[nH]c1=O` and `CC(=O)NNc1nc(-c2ccc([N+](=O)[O-])cc2)c(C#N)c(=O)n1C` cannot be ordered by TGI: greater than 500 µM for the first, greater than 100 µM for the second.

`NCCCn1c2c(c3ccc([N+](=O)[O-])cc3c1=O)C(=O)c1ccccc1-2` and `Cc1cc2c(cc1C(=O)c1ccc(N)cc1)OCO2` cannot be ordered by TGI: greater than 50 µM for the first, greater than 100 µM for the second.

First: CCc1nc(N)nc(N)c1-c1ccc([N+](C)(C)C)cc1
Second: NCCc1cc(O)c(O)cc1O
The TGI of the first is higher: greater than 100 µM for the first, 51.2 µM for the second.

`CCCOC(=O)CNC(=O)OC(C)(C)C` gave a TGI greater than 100 µM.

Going from `NCCCn1c2c(c3ccc([N+](=O)[O-])cc3c1=O)C(=O)c1ccccc1-2` to `COc1cc(C2CC(c3cccc(Nc4ccncc4)c3)=NN2c2ccc(Cl)cc2)cc(OC)c1OC` (stereo not drawn), the GI50 rises from 0.11 µM to 1.15 µM (10-fold).

test system: RXF 393 renal; experiment: inhibition of tumour cell growth, NCI panel, 48 h

Going from `Nc1n[nH]c(=O)c2c1c(I)cn2C1OC(CO)C(O)C1O` (stereo not drawn) to `NCCc1cc(O)c(O)cc1O`, the TGI rises from 3.22 µM to 97.5 µM (30-fold).

Compared with `O=C(Nc1ccc([N+](=O)[O-])cc1[N+](=O)[O-])C(=O)C(C(=O)c1ccc2ccccc2c1)C1OC(=O)c2ccccc21` (stereo not drawn), `COc1ccc(C2=C3SC=c4ccccc4=C3ON=C2c2ccccc2)cc1` is higher in TGI: 27.3 µM for the first, greater than 100 µM for the second.

First: COc1cc(/C=C/C(=O)Oc2ccc(NC(C)=O)cc2)ccc1C(=O)O/C=C/c1ccccc1
Second: CN(C)CCNC(=O)c1cccc2ccc(-c3ccc(F)cc3)nc12
The TGI of the first is higher: greater than 100 µM for the first, 20.4 µM for the second.

Compared with `O=P1(c2ccccc2)Nc2ccccc2SSc2ccccc2N1`, `N=C1C(=N)c2ccccc2-c2ccccc21.N=C1C(=N)c2ccccc2-c2ccccc21.N=C1C(=N)c2ccccc2-c2ccccc21.[Cl-].[Ru+2]` is 6.2-fold lower in TGI: 34.5 µM for the first, 5.58 µM for the second.

`CN(C)C(=O)/C=C/c1c[nH]c(=O)[nH]c1=O` and `CC(=O)NNc1nc(-c2ccc([N+](=O)[O-])cc2)c(C#N)c(=O)n1C` cannot be ordered by TGI: greater than 500 µM for the first, greater than 100 µM for the second.

Compared with `CN(C)CCCn1cnc2cc(Cl)c(Cl)cc21`, `NCCCn1c2c(c3ccc([N+](=O)[O-])cc3c1=O)C(=O)c1ccccc1-2` is lower in TGI: greater than 100 µM for the first, 2.1 µM for the second.

`CCc1nc(N)nc(N)c1-c1ccc([N+](C)(C)C)cc1` and `CCCOC(=O)CNC(=O)OC(C)(C)C` cannot be ordered by TGI: greater than 100 µM for the first, greater than 100 µM for the second.

In the case of `NCCCn1c2c(c3ccc([N+](=O)[O-])cc3c1=O)C(=O)c1ccccc1-2`, the GI50 is reported as 0.709 µM.

test system: U251 CNS; experiment: inhibition of tumour cell growth, NCI panel, 48 h

First: Nc1n[nH]c(=O)c2c1c(I)cn2C1OC(CO)C(O)C1O (stereo not drawn)
Second: C[C@H]1C(=O)O[C@@H]2CCN3CC=C(COC(=O)[C@](C)(O)[C@@]1(C)O)[C@H]23
The TGI of the first is lower: 4.19 µM for the first, greater than 100 µM for the second.

Compared with `O=C(Nc1ccc([N+](=O)[O-])cc1[N+](=O)[O-])C(=O)C(C(=O)c1ccc2ccccc2c1)C1OC(=O)c2ccccc21` (stereo not drawn), `COc1ccc(C2=C3SC=c4ccccc4=C3ON=C2c2ccccc2)cc1` is higher in TGI: 16.9 µM for the first, greater than 100 µM for the second.

Compared with `COc1cc(/C=C/C(=O)Oc2ccc(NC(C)=O)cc2)ccc1C(=O)O/C=C/c1ccccc1`, `CCOC(=O)c1c2c(n(Cc3ccccc3)c1C)C(=O)C(=O)c1ccccc1-2` is lower in TGI: greater than 100 µM for the first, 2.03 µM for the second.

Compared with `COc1ccc2c(c1)CCCN2CCCCCCCCCCN(CCC(C)C)CCC(C)C`, `CN(C)CCCn1cnc2cc(Cl)c(Cl)cc21` is higher in TGI: 26.6 µM for the first, greater than 100 µM for the second.

Compared with `O=P1(c2ccccc2)Nc2ccccc2SSc2ccccc2N1`, `O=C1NI(C#Cc2ccccc2)c2ccccc21` is higher in TGI: 30.4 µM for the first, greater than 100 µM for the second.

`COc1ccc(-c2nc3ncccn3c2-c2ccc(SC)cc2)cc1` and `CN(C)CCNC(=O)c1cccc2ccc(-c3ccc(F)cc3)nc12` are within 1.5-fold of each other in TGI: 29 µM for the first, 22.3 µM for the second.

Going from `N=C1C(=N)c2ccccc2-c2ccccc21.N=C1C(=N)c2ccccc2-c2ccccc21.N=C1C(=N)c2ccccc2-c2ccccc21.[Cl-].[Ru+2]` to `NCCCn1c2c(c3ccc([N+](=O)[O-])cc3c1=O)C(=O)c1ccccc1-2`, the TGI falls from 3.08 µM to 0.0534 µM (58-fold).

Compared with `CN(C)C(=O)/C=C/c1c[nH]c(=O)[nH]c1=O`, `CC(=O)NNc1nc(-c2ccc([N+](=O)[O-])cc2)c(C#N)c(=O)n1C` is lower in TGI: greater than 500 µM for the first, 50 µM for the second.

`CCc1nc(N)nc(N)c1-c1ccc([N+](C)(C)C)cc1` and `Cc1cc2c(cc1C(=O)c1ccc(N)cc1)OCO2` cannot be ordered by TGI: greater than 100 µM for the first, greater than 100 µM for the second.

Compared with `NCCc1cc(O)c(O)cc1O`, `CCCOC(=O)CNC(=O)OC(C)(C)C` is higher in TGI: 28.5 µM for the first, greater than 100 µM for the second.

Going from `NCCCn1c2c(c3ccc([N+](=O)[O-])cc3c1=O)C(=O)c1ccccc1-2` to `NCCc1cc(O)c(O)cc1O`, the GI50 rises from 0.005 µM to 14 µM (2800-fold).

test system: SR leukemia; experiment: inhibition of tumour cell growth, NCI panel, 48 h

Going from `Nc1n[nH]c(=O)c2c1c(I)cn2C1OC(CO)C(O)C1O` (stereo not drawn) to `NCCc1cc(O)c(O)cc1O`, the TGI rises from 1.33 µM to 31 µM (23-fold).

Going from `O=C(Nc1ccc([N+](=O)[O-])cc1[N+](=O)[O-])C(=O)C(C(=O)c1ccc2ccccc2c1)C1OC(=O)c2ccccc21` (stereo not drawn) to `COc1ccc(C2=C3SC=c4ccccc4=C3ON=C2c2ccccc2)cc1`, the TGI rises from 16.7 µM to greater than 100 µM.

Compared with `COc1ccc(-c2nc3ncccn3c2-c2ccc(SC)cc2)cc1`, `CCc1nc(N)nc(N)c1-c1ccc([N+](C)(C)C)cc1` is higher in TGI: 10.6 µM for the first, greater than 100 µM for the second.

Going from `N=C1C(=N)c2ccccc2-c2ccccc21.N=C1C(=N)c2ccccc2-c2ccccc21.N=C1C(=N)c2ccccc2-c2ccccc21.[Cl-].[Ru+2]` to `O=C1NI(C#Cc2ccccc2)c2ccccc21`, the TGI rises from 5.57 µM to greater than 100 µM.

`CN(C)CCCn1cnc2cc(Cl)c(Cl)cc21` and `NCCCn1c2c(c3ccc([N+](=O)[O-])cc3c1=O)C(=O)c1ccccc1-2` cannot be ordered by TGI: greater than 100 µM for the first, greater than 50 µM for the second.

`Cc1cc2c(cc1C(=O)c1ccc(N)cc1)OCO2` and `CC(=O)NNc1nc(-c2ccc([N+](=O)[O-])cc2)c(C#N)c(=O)n1C` cannot be ordered by TGI: greater than 100 µM for the first, greater than 100 µM for the second.

Compound `CCCOC(=O)CNC(=O)OC(C)(C)C` has a TGI greater than 100 µM.

With `NCCCn1c2c(c3ccc([N+](=O)[O-])cc3c1=O)C(=O)c1ccccc1-2` the GI50 was 0.005 µM.
